Our source for the IC50 values is patent US20050282818A1, “Ubiquitin ligase inhibitors” (Rigel Pharmaceuticals, Inc., priority 2004, published 2005).

One assay deals with T1, TRAF6/Uev1A/Ubc13 (Homo sapiens, UniProt Q9Y4K3).
T1 sequence (Q9Y4K3 1-522): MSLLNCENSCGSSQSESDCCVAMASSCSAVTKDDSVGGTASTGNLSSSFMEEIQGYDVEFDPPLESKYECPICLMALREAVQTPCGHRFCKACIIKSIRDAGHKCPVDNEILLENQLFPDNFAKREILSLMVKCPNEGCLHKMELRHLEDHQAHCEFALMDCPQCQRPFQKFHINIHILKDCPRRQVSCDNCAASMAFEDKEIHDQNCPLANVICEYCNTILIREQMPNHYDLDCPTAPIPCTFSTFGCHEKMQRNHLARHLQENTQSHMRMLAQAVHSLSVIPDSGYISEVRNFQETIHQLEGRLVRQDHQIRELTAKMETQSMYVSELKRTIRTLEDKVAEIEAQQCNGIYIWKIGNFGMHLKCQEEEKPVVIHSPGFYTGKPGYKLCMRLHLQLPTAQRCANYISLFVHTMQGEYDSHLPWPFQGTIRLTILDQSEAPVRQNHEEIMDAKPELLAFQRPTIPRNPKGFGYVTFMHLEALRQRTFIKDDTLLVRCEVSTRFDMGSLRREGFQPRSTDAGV
In words: TRAF6/Uev1A/Ubc13 plate-based ubiquitin ligase assay. In kind it is biochemical. In a few lines:
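Ligase activity was read as luminescence from anti-Flag/HRP detection of Flag-ubiquitin bound to casein-blocked Ni-plates alongside His-ubiquitin after a 1 h room-temperature reaction. Buffer: 62.5 mM Tris pH 7.5, 6.25 mM MgCl2, 1.0 mM DTT, 2 μM ATP; E1, Uev1a/Ubc13 and TRAF6 added last to start. IC50s derived across compound concentrations.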

For a further assay, the system named is A549 cells. The assay can be described thus: Cell proliferation PAD assay, A549. In kind it is cell-based. The following applies: Homo sapiens, 48 hours. In a few lines:
(§1)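 Each line, seeded at 2,000 cells/well, received duplicate 6.3-fold compound dilutions (10 mM stock, diluted 500× into medium) one day after plating. Exposure lasted 48 h; fixed cells were DAPI-stained and photographed, and images were analysed for live, apoptotic and dead cell numbers.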

The test system of the next assay is H1299 cells. The assay can be described thus: Cell proliferation PAD assay, H1299. In kind it is cell-based. The following applies: Homo sapiens, 48 hours. In a few lines: as §1
Where [1] appears, read: NCI-H1299, 6pt, read-out: H1299 6pt.

Molecules are shown by their SMILES. Where two headings read alike, the source gives them in different places. A value given as a limit tells only on which side of the number the result lay.

`Cc1cc(C)cc(-c2ccc([N+](=O)[O-])c3nonc23)c1` [compound 286, 4-(3,5-Dimethylphenyl)-7-nitro-2,1,3-benzoxadiazole]: the IC50 is ≥ 20 µM on TRAF6/Uev1A/Ubc13; 1 to 20 µM in the assay on A549 cells (3pt, read-out: A549 3pt); ≥ 20 µM with A549 cells (6pt, read-out: A549 6pt); 1000 to 20000 nM in the assay on H1299 cells (NCI-H1299, 3pt, read-out: H1299 3pt); < 1000 nM in the assay with H1299 cells (setting [1]).
For the compound `O=[N+]([O-])c1ccc(-c2cccc(C(F)(F)F)c2)c2nonc12` [compound 309, 4-Nitro-7-[3-(trifluoromethyl)phenyl]-2,1,3-benzoxadiazole], the IC50 at TRAF6/Uev1A/Ubc13 fell in the range of 1 to 20 µM; in the assay on A549 cells (6pt, read-out: A549 6pt), 1 to 20 µM; in the assay with H1299 cells (setting [1]), 1000 to 20000 nM.
As for `Cc1cccc(-c2ccc([N+](=O)[O-])c3nonc23)c1` [compound 310, 4-(3-Methylphenyl)-7-nitro-2,1,3-benzoxadiazole], the IC50 against TRAF6/Uev1A/Ubc13 was ≥ 20 µM; in the assay with A549 cells (6pt, read-out: A549 6pt), < 1 µM; in the assay on H1299 cells (setting [1]), < 1000 nM.
On the same counts, the results for `CC(C)(C)c1ccc(-c2ccc([N+](=O)[O-])c3nonc23)cc1` [compound 313, 4-(4-Tert-butylphenyl)-7-nitro-2,1,3-benzoxadiazole] are 1 to 20 µM, < 1 µM and < 1000 nM.
Turning to `COc1cccc(-c2ccc([N+](=O)[O-])c3nonc23)c1F` [compound 314, 4-(2-Fluoro-3-methoxyphenyl)-7-nitro-2,1,3-benzoxadiazole], the IC50 against TRAF6/Uev1A/Ubc13 was 1 to 20 µM; in the assay on A549 cells (6pt, read-out: A549 6pt), 1 to 20 µM; with H1299 cells (setting [1]), 1000 to 20000 nM.
On to `O=S(=O)(Nc1ccc2cn[nH]c2c1)c1c(O)ccc2nonc12` [compound 339, 5-hydroxy-N-(1H-indazol-6-yl)2,1,3-benzoxadiazole-4-sulfonamide], for which the IC50 against TRAF6/Uev1A/Ubc13 is ≥ 20 µM; in the assay with A549 cells (6pt, read-out: A549 6pt), ≥ 20 µM; in the assay on H1299 cells (setting [1]), ≥ 20000 nM.
Turning to `O=S(=O)(c1c(N2CCC(Oc3ccccc3C(F)(F)F)CC2)ccc2nonc12)N1CCC(Oc2ccccc2C(F)(F)F)CC1` [compound 340, 5-[4-(2-{trifluoromethyl}phenoxy)piperidin-1-yl]-4-{[4-(2-{trifluoromethyl}phenoxy)piperidin-1-yl]sulfonyl}-2,1,3-benzoxadiazole], the IC50 against TRAF6/Uev1A/Ubc13 was ≥ 20 µM; in the assay with A549 cells (6pt, read-out: A549 6pt), 1 to 20 µM; with H1299 cells (setting [1]), 1000 to 20000 nM.
On the same counts, the results for `COc1cc(NS(=O)(=O)c2ccc(Cl)c3nonc23)c(OC)cc1Cl` [compound 341, 7-chloro-N-(4-chloro-2,5-dimethoxyphenyl)-2,1,3-benzoxadiazole-4-sulfonamide] are ≥ 20 µM, 1 to 20 µM and 1000 to 20000 nM.
The matching figures for `COc1cc(Nc2ccc(S(=O)(=O)Nc3cc(OC)c(Cl)cc3OC)c3nonc23)c(OC)cc1Cl` [compound 342, N-(4-chloro-2,5-dimethoxyphenyl)-7-([4-chloro-2,5-dimethoxyphenyl]amino)-2,1,3-benzoxadiazole-4-sulfonamide]: 1 to 20 µM, 1 to 20 µM and < 1000 nM.
Take `COc1cc(NS(=O)(=O)c2c(Cl)ccc3nonc23)c(OC)cc1Cl` [compound 343, 5-chloro-N-(4-chloro-2,5-dimethoxyphenyl)-2,1,3-benzoxadiazole-4-sulfonamide]: the IC50 is ≥ 20 µM at TRAF6/Uev1A/Ubc13; 1 to 20 µM with A549 cells (6pt, read-out: A549 6pt); 1000 to 20000 nM in the assay on H1299 cells (setting [1]).
For `COc1cc(Nc2ccc3nonc3c2S(=O)(=O)Nc2cc(OC)c(Cl)cc2OC)c(OC)cc1Cl` [compound 344, N-(4-chloro-2,5-dimethoxyphenyl)-5-([4-chloro-2,5-dimethoxyphenyl]amino)-2,1,3-benzoxadiazole-4-sulfonamide], the IC50 at TRAF6/Uev1A/Ubc13 was ≥ 20 µM; with A549 cells (6pt, read-out: A549 6pt) it was ≥ 20 µM; in the assay on H1299 cells (setting [1]), ≥ 20000 nM.
